Reference: US10501453B2, “Benzothiazole or benzoxazole compounds as SUMO activators” (Icahn School of Medicine at Mount Sinai, priority 2012, dated 2019)

Tested on: Yorkshire pigs with severe heart failure
Assay: Contractility in Yorkshire pigs with severe heart failure secondary to myocardial infarction
Format: in vivo, pig
Settings: 5 mg/kg, intracoronary
Experimental: Example 1 was dosed in Yorkshire pigs at 5 mg/kg with severe heart failure secondary to myocardial infarction.
The experimental protocols complied with the National Institutes of Health Guide for the Care and Use of Laboratory Animals and standards of United States regulatory agencies. They were approved by the Institutional Animal Care and Use Committee of the Mount Sinai School of Medicine. Yorkshire pigs were pre-medicated using intramuscular Telazol™ (8.0 mg/kg; tiletamine hydrochloride and zolazepam hydrochloride; Fort Dodge Animal Health, Fort Dodge, Iowa). After the placement of an intravenous line, animals were intubated and ventilated with 100% oxygen. General anesthesia was maintained with intravenous propofol (8-10 mg/kg/hr) throughout the procedure.
The animals underwent a 2-hour balloon occlusion of the proximal LAD (left anterior descending coronary artery) followed by reperfusion. Ten minutes before MI creation a continuous infusion of 20 mEq potassium acetate, 75 mg amiodarone, and 2 mg atropine was initiated to reduce ischemia related arrhythmia. […] Arterial pressure, blood oxygen saturation (SpO2), and electrocardiogram were monitored closely throughout the procedure. […]
Cardiac performance was evaluated at one month after MI. […] Cardiac function was monitored and recorded for 3 hours after injection.

COc1ccc(-c2nnc(Nc3nc4c(OC)cccc4s3)o2)cc1 [Example 1, N-(4-methoxybenzo[d]thiazol-2-yl)-5-(4-methoxyphenyl)-1,3,4-oxadiazol-2-amine]
increase in contractility (as measured by dP/dt): 25-30%
